Laboratory results reported in patent US20150105252A1, “SUBSTITUTED PYRAZOLES AS HERBICIDES” (E I DU PONT DE NEMOURS AND COMPANY, priority 2013, published 2015).

Columns and labels:
barnyardgrass [1] = experiment: Test A preemergence; format: in vivo, Echinochloa crus-galli; conditions: preemergence; for Barnyardgrass plant response rating (0 to 100 scale, 0 is no effect, 100 is complete control): 125 g ai/ha, visual injury approx. 10 days after treatment; for Barnyardgrass plant response rating: 500 g ai/ha, visual injury after approx. 10 days, 0 to 100 scale (0 no effect, 100 complete control)
In short: (§1)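 Greenhouse test in loam soil/sand blend; compounds formulated in non-phytotoxic solvent with surfactant, applied as preemergence directed soil spray or postemergence to plants 2–10 cm tall at one- to two-leaf stage. Injury rated visually versus untreated controls after approximately 10 days on a 0 (no effect) to 100 (complete control) scale.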

crabgrass, large [2] = experiment: Test A preemergence; format: in vivo, Digitaria sanguinalis; conditions: preemergence; for Crabgrass, Large plant response rating (0 to 100 scale): 125 g ai/ha, visual injury approx. 10 days after treatment; for Crabgrass, Large plant response rating: 500 g ai/ha, visual injury after approx. 10 days, 0 to 100 scale (0 no effect, 100 complete control)
In short: as §1

foxtail, giant [3] = experiment: Test A preemergence; format: in vivo, Setaria faberii; conditions: preemergence; for Foxtail, Giant plant response rating (0 to 100 scale): 125 g ai/ha, visual injury approx. 10 days after treatment; for Foxtail, Giant plant response rating: 500 g ai/ha, visual injury after approx. 10 days, 0 to 100 scale (0 no effect, 100 complete control)
In short: as §1

morningglory [4] = experiment: Test A preemergence; format: in vivo, Ipomoea spp.; conditions: preemergence, 125 g ai/ha, visual injury approx. 10 days after treatment
In short: as §1

pigweed [5] = experiment: Test A preemergence; format: in vivo, Amaranthus retroflexus; conditions: preemergence, 125 g ai/ha, visual injury approx. 10 days after treatment
In short: as §1

velvetleaf [6] = experiment: Test A preemergence; format: in vivo, Abutilon theophrasti; conditions: preemergence, 125 g ai/ha, visual injury approx. 10 days after treatment
In short: as §1

wheat [7] = experiment: Test A preemergence; format: in vivo, Triticum aestivum; conditions: preemergence, 125 g ai/ha, visual injury approx. 10 days after treatment
In short: as §1

corn [8] = experiment: Test A preemergence; format: in vivo, Zea mays; conditions: preemergence; for Corn plant response rating (0 to 100 scale): 125 g ai/ha, visual injury approx. 10 days after treatment; for Corn plant response rating: 500 g ai/ha, visual injury after approx. 10 days, 0 to 100 scale (0 no effect, 100 complete control)
In short: as §1

barnyardgrass [9] = experiment: Test A postemergence; format: in vivo, Echinochloa crus-galli; conditions: Postemergence
In short: as §1

crabgrass, large [10] = experiment: Test A postemergence; format: in vivo, Digitaria sanguinalis; conditions: Postemergence
In short: as §1

foxtail, giant [11] = experiment: Test A postemergence; format: in vivo, Setaria faberii; conditions: Postemergence
In short: as §1

morningglory [12] = experiment: Test A postemergence; format: in vivo, Ipomoea spp.; conditions: Postemergence
In short: as §1

pigweed [13] = experiment: Test A postemergence; format: in vivo, Amaranthus retroflexus; conditions: Postemergence
In short: as §1

velvetleaf [14] = experiment: Test A postemergence; format: in vivo, Abutilon theophrasti; conditions: Postemergence
In short: as §1

wheat [15] = experiment: Test A postemergence; format: in vivo, Triticum aestivum; conditions: Postemergence
In short: as §1

corn [16] = experiment: Test A postemergence; format: in vivo, Zea mays; conditions: Postemergence
In short: as §1

rice = experiment: Test B flood; format: in vivo, Oryza sativa; conditions: 250 g ai/ha, visual rating on 0 to 100 scale (0 no effect, 100 complete control), 13 to 15 days
In short: (§2)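 Visual ratings (0 = no effect, 100 = complete control) versus untreated controls were taken 13–15 days after treatment of greenhouse plants. Treatment was added to paddy water held at 3 cm depth on 2-leaf-stage seedlings.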

sedge, umbrella = experiment: Test B flood; format: in vivo, Cyperus difformis; conditions: 250 g ai/ha, visual rating on 0 to 100 scale (0 no effect, 100 complete control), 13 to 15 days
In short: as §2

ducksalad = experiment: Test B flood; format: in vivo, Heteranthera limosa; conditions: 250 g ai/ha, visual rating on 0 to 100 scale (0 no effect, 100 complete control), 13 to 15 days
In short: as §2

barnyardgrass [17] = experiment: Test B flood; format: in vivo, Echinochloa crus-galli; conditions: 250 g ai/ha, visual rating on 0 to 100 scale (0 no effect, 100 complete control), 13 to 15 days
In short: as §2

[18] = 125 g ai/ha, 0 to 100 scale, 0 no effect, 100 complete control
[19] = 500 g ai/ha, 0 to 100 scale (0 no effect, 100 complete control)

Compound | Barnyardgrass plant response rating (0 to 100 scale, 0 is no effect, 100 is complete control) (barnyardgrass [1]) | Barnyardgrass plant response rating (barnyardgrass [1]) | Crabgrass, Large plant response rating (0 to 100 scale) (crabgrass, large [2]) | Crabgrass, Large plant response rating (crabgrass, large [2]) | Foxtail, Giant plant response rating (0 to 100 scale) (foxtail, giant [3]) | Foxtail, Giant plant response rating (foxtail, giant [3]) | Morningglory plant response rating (0 to 100 scale) (morningglory [4]) | Pigweed plant response rating (0 to 100 scale) (pigweed [5]) | Velvetleaf plant response rating (0 to 100 scale) (velvetleaf [6]) | Wheat plant response rating (0 to 100 scale) (wheat [7]) | Corn plant response rating (0 to 100 scale) (corn [8]) | Corn plant response rating (corn [8]) | Barnyardgrass plant response rating (barnyardgrass [9]; [18]) | Barnyardgrass plant response rating (barnyardgrass [9]; [19]) | Crabgrass, Large plant response rating (crabgrass, large [10]; [18]) | Crabgrass, Large plant response rating (crabgrass, large [10]; [19]) | Foxtail, Giant plant response rating (foxtail, giant [11]; [18]) | Foxtail, Giant plant response rating (foxtail, giant [11]; [19]) | Morningglory plant response rating (morningglory [12]; [18]) | Morningglory plant response rating (morningglory [12]; [19]) | other results
CCc1cc(C(=O)NC2CC2)nn1Oc1cccc(OC(F)(F)F)c1 [Compound 222] | 0 | 90 | 80 | 100 | 0 | 80 | 0 | 20 | 0 | 0 | 0 | 0 | 80 | 80 | 40 | 90 | 20 | 70 | 30 | 50 | Pigweed plant response rating (pigweed [13]; [18]): 30; Pigweed plant response rating (pigweed [13]; [19]): 100; Velvetleaf plant response rating (velvetleaf [14]; [18]): 30; Velvetleaf plant response rating (velvetleaf [14]; [19]): 50; Wheat plant response rating (wheat [15]; [18]): 0; Wheat plant response rating (wheat [15]; [19]): 20; Corn plant response rating (corn [16]; [18]): 0; Corn plant response rating (corn [16]; [19]): 60; Plant response rating, Rice (rice): 15; Plant response rating, Sedge, Umbrella (sedge, umbrella): 65; Plant response rating, Ducksalad (ducksalad): 55; Plant response rating, Barnyardgrass (barnyardgrass [17]): 0
CCNC(=O)c1cc(CC)n(Oc2cccc(OC(F)(F)F)c2)n1 [Compound 223] | 0 | 40 | 20 | 90 | 0 | 20 | 0 | 0 | 0 | 0 | 0 | 0 | 0 | 50 | 20 | 70 | 0 | 30 | 0 | 30 | Pigweed plant response rating (pigweed [13]; [18]): 20; Pigweed plant response rating (pigweed [13]; [19]): 60; Velvetleaf plant response rating (velvetleaf [14]; [18]): 0; Velvetleaf plant response rating (velvetleaf [14]; [19]): 30; Wheat plant response rating (wheat [15]; [18]): 0; Wheat plant response rating (wheat [15]; [19]): 10; Corn plant response rating (corn [16]; [18]): 0; Corn plant response rating (corn [16]; [19]): 30; Plant response rating, Rice (rice): 25; Plant response rating, Sedge, Umbrella (sedge, umbrella): 65; Plant response rating, Ducksalad (ducksalad): 25; Plant response rating, Barnyardgrass (barnyardgrass [17]): 0
CCCNC(=O)c1cc(COC)n(Cc2cc(C(F)(F)C(F)(F)F)nn2C)n1 [Compound 228] | 10 | 90 | 90 | 100 | 30 | 80 | 30 | 90 | 0 | 0 | 0 | 30 | 0 | 50 | 20 | 60 | 10 | 60 | 50 | 100 | Pigweed plant response rating (pigweed [13]; [18]): 30; Pigweed plant response rating (pigweed [13]; [19]): 80; Velvetleaf plant response rating (velvetleaf [14]; [18]): 10; Velvetleaf plant response rating (velvetleaf [14]; [19]): 30; Wheat plant response rating (wheat [15]; [18]): 0; Wheat plant response rating (wheat [15]; [19]): 10; Corn plant response rating (corn [16]; [18]): 10; Corn plant response rating (corn [16]; [19]): 50; Plant response rating, Rice (rice): 0; Plant response rating, Sedge, Umbrella (sedge, umbrella): 30; Plant response rating, Ducksalad (ducksalad): 30; Plant response rating, Barnyardgrass (barnyardgrass [17]): 0
